Measured values from PubChem BioAssay (NCI).
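Grown in 96-well plates, cells were treated for 48 hours with each compound at five concentrations. Insufficient inhibition: endpoint recorded as highest concentration tested. The concentration for 50% growth inhibition is given as GI50. Definition used: TGI = concentration required for complete inhibition of growth.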

Legend:
Test in all cases: growth of human tumour cells (NCI), 48 h
ACHN renal = tested on: ACHN renal
NCI-H23 lung = tested on: NCI-H23 lung
RPMI-8226 leukemia = tested on: RPMI-8226 leukemia
OVCAR-8 ovarian = tested on: OVCAR-8 ovarian
OVCAR-4 ovarian = tested on: OVCAR-4 ovarian
NCI/ADR-RES ovarian = tested on: NCI/ADR-RES ovarian
CCRF-CEM leukemia = tested on: CCRF-CEM leukemia
M14 melanoma = tested on: M14 melanoma
SK-MEL-28 melanoma = tested on: SK-MEL-28 melanoma
SK-MEL-2 melanoma = tested on: SK-MEL-2 melanoma

Structure (SMILES) | GI50 (ACHN renal) [µM] | TGI (ACHN renal) [µM] | GI50 (NCI-H23 lung) [µM] | TGI (NCI-H23 lung) [µM] | GI50 (RPMI-8226 leukemia) [µM] | TGI (RPMI-8226 leukemia) [µM] | GI50 (OVCAR-8 ovarian) [µM] | TGI (OVCAR-8 ovarian) [µM] | GI50 (OVCAR-4 ovarian) [µM] | TGI (OVCAR-4 ovarian) [µM] | GI50 (NCI/ADR-RES ovarian) [µM] | TGI (NCI/ADR-RES ovarian) [µM] | GI50 (CCRF-CEM leukemia) [µM] | TGI (CCRF-CEM leukemia) [µM] | GI50 (M14 melanoma) [µM] | TGI (M14 melanoma) [µM] | GI50 (SK-MEL-28 melanoma) [µM] | TGI (SK-MEL-28 melanoma) [µM] | GI50 (SK-MEL-2 melanoma) [µM] | TGI (SK-MEL-2 melanoma) [µM]
N#C/C(=C\c1ccc[nH]1)c1cc(-c2ccc(Cl)cc2)nn1-c1ccccc1 | 5.55 | 47.5 | 4.19 | 22.1 | 2.48 | 9.77 | 11.5 | > 100 | 1.73 | > 56.3 | 3.93 | > 31.4 | 3.59 | 22 | 4.09 | 14.8 | 4.57 | 17.5 | 8.65 | 34.6
O=C(NC1CCC[C@H]1OC(=O)c1ccccc1)c1ccccc1 (some centres not stated) |  |  |  | > 100 |  |  |  | > 100 |  | > 100 |  |  |  | > 100 |  | > 100 |  | > 100 |  | > 100
[N-]=[N+]=C(C(=O)CN1CCCC1=O)S(=O)(=O)c1ccccc1 |  | > 100 |  | > 100 |  | > 100 |  | > 100 |  |  |  | > 100 |  | > 100 |  | > 100 |  | > 100 |  | > 100
CC(C)N1CC2CC(CN(C(=O)c3ccc(Cl)cc3)C2)C1 |  | > 100 |  | > 100 |  | > 100 |  | > 100 |  | > 100 |  |  |  | > 100 |  | > 100 |  | > 100 |  | > 100
COc1ccc(C(C2=C(O)CC(C)OC2=O)C2=C(O)CC(C)OC2=O)cc1 (configuration not stated) |  | > 100 |  | > 100 |  | > 100 |  | > 100 |  | > 100 |  |  |  | > 100 |  | > 100 |  | > 100 |  | > 100
Cc1cc(I)cc(CN(C)CCCN2CCC(C)CC2)c1O | 16.3 | 30.7 | 15.4 | 33.7 | 12.6 | 32 | 16.7 | 33.5 | 13.1 | 31.7 | 14.3 | 31 |  |  | 13.7 | 26.8 | 12.1 | 24.5 | 17.4 | 33.9
CCC(O)CCCCCCCCCCCCCCC(=O)O (configuration not stated) |  | > 100 |  | > 100 |  | > 100 |  | > 100 |  | > 100 |  |  |  | > 100 |  | > 100 |  | > 100 |  | > 100
C=CCC1(CN(C)C)CC/C(=C\c2ccc3c(c2)OCO3)C1=O (configuration not stated) |  | > 100 |  | > 100 |  | 59.4 |  | > 100 |  | > 100 |  |  |  | 81.4 |  | > 100 |  | > 100 |  | > 100
CN(C(=O)C(C)(C)C)c1ccccc1I(=O)=O | > 100 | > 100 | > 100 | > 100 | 18.8 | 66 | > 100 | > 100 | > 100 | > 100 | > 100 | > 100 | 8.62 | 31.6 |  |  | 92.5 | > 100 | > 100 | > 100
CC(=O)C1=C(C)N(Cc2ccccc2)C2(O)C=CC(=O)C3=C(O)c4ccccc4C(=O)C312 (configuration not stated) |  |  | 7.53 | 24.7 | 2.35 | 6.38 | 6.25 | 30 | 4.84 | 44.3 | 3.02 | > 100 |  |  | 3.18 | 9.03 | 2.36 | 6.1 | 20.8 | > 100
O=C(CC12C3C4C1C1C2C3C41CC(=O)NO)NO (configuration not stated) |  | > 100 |  | > 100 |  | > 100 |  | > 100 |  |  |  |  |  | 80.1 |  | > 100 |  | > 100 |  | > 100
COC(=O)[C@]1(C)CCC[C@@]2(C)C3=C(CC[C@H]12)C[C@@H](CC(OC(C)=O)OC(C)=O)[C@@H](C)C3 | 13.9 | > 28.2 | 9.15 | 16.7 | 5.23 | 27.7 | 10.2 | 20.5 | 14.4 | 47.4 | 8.95 | 16.3 |  |  | 11.1 | 20 | 11.5 | 24.5 | 15.9 | > 37.4
NC1CC(=O)c2c(-c3cccs3)sc(-c3cccs3)c21 (configuration not stated) | 10 | 25.5 | 23.1 | 57.6 | 12.3 | 49.7 | 30.2 | > 100 | 43 | > 100 | 29.5 | > 100 | 3.89 | > 100 | 37.3 | > 100 | 19.2 | 39.7 |  | 
CC1(c2ccc(F)cc2)C2C(=O)NC(=O)C1C(=O)NC2=O (configuration not stated) |  | > 100 |  | > 100 |  | > 100 |  | > 100 |  | > 100 |  |  |  | > 100 |  | > 100 |  | > 100 |  | > 100
CSc1ccc(N2C(=O)C3c4[nH]c5ccccc5c4C4CCC(C(C)(C)C)CC4C3C2=O)cc1 (configuration not stated) |  | 29.1 |  | 31.9 |  | > 100 |  | 27.8 |  | 24.9 |  |  |  | 23.5 |  | > 100 |  | 35.1 |  | 43.1
CCO/C=C\C12CCCC1NC(c1ccccc1)(c1ccccc1)O2 (configuration not stated) |  | 92.5 |  | 80.2 |  |  |  | > 100 |  | > 100 |  |  |  | 51 |  | 66 |  | > 100 |  | 45.7
O=C(Nc1cccc([N+](=O)[O-])c1)c1cccc(C(=O)Nc2cccc([N+](=O)[O-])c2)c1 | > 100 | > 100 | > 72.4 | > 100 | > 100 | > 100 | 14 | > 100 | > 100 | > 100 | > 100 | > 100 | > 100 | > 100 | > 100 | > 100 | > 100 | > 100 |  | 
